Measurements: PubChem BioAssay AID256 (DTP/NCI, 2004)
Where “and” joins values, the source holds several entries; their conditions need not be identical. Equal entries are not always repeated. Toxic doses and inconclusive results are not listed. How the source made its calls: active means survival T/C of 150% or more; inactive means T/C below 125% in these data.

Tested on: CD2F1 mice, L1210 leukemia ip, survival T/C
Assay: NCI In Vivo Anticancer Drug Screen. Data for tumor model L1210 Leukemia (intraperitoneal) in CD2F1 (CDF1) mice
Details: higher = longer survival
Procedure, shortened: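 Implant tumor; dose compound or vehicle; measure endpoint in both groups; report treated divided by control.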

[1] = endpoint: mean survival time, dose: 25.0 mg/kg/injection, schedule: Q01DX009 (ip), vehicle: saline
[2] = endpoint: mean survival time, dose: 50.0 mg/kg/injection, schedule: Q01DX009 (ip), vehicle: saline
[3] = endpoint: mean survival time, dose: 25.0 mg/kg/injection, schedule: Q01DX009 (ip), vehicle: saline with Tween-80
[4] = endpoint: mean survival time, dose: 50.0 mg/kg/injection, schedule: Q01DX009 (ip), vehicle: saline with Tween-80
[5] = endpoint: mean survival time, dose: 100.0 mg/kg/injection, schedule: Q01DX001 (ip), vehicle: saline with Tween-80
[6] = endpoint: mean survival time, dose: 100.0 mg/kg/injection, schedule: Q04DX002 (ip), vehicle: saline with Tween-80
[7] = endpoint: mean survival time, dose: 100.0 mg/kg/injection, schedule: Q04DX003 (ip), vehicle: saline with Tween-80
[8] = endpoint: mean survival time, dose: 200.0 mg/kg/injection, schedule: Q01DX009 (ip), vehicle: saline with Tween-80
[9] = endpoint: mean survival time, dose: 200.0 mg/kg/injection, schedule: Q04DX003 (ip), vehicle: saline with Tween-80
[10] = endpoint: mean survival time, dose: 400.0 mg/kg/injection, schedule: Q04DX002 (ip), vehicle: saline with Tween-80
[11] = endpoint: mean survival time, dose: 400.0 mg/kg/injection, schedule: Q04DX003 (ip), vehicle: saline with Tween-80
[12] = endpoint: mean survival time, dose: 100.0 mg/kg/injection, schedule: Q01DX009 (ip), vehicle: saline with Tween-80
[13] = endpoint: mean survival time, dose: 400.0 mg/kg/injection, schedule: Q01DX009 (ip), vehicle: saline with Tween-80
[14] = endpoint: mean survival time, dose: 100.0 mg/kg/injection, schedule: Q01DX001 (ip), vehicle: saline
[15] = endpoint: mean survival time, dose: 200.0 mg/kg/injection, schedule: Q01DX001 (ip), vehicle: saline
[16] = endpoint: mean survival time, dose: 400.0 mg/kg/injection, schedule: Q01DX001 (ip), vehicle: saline
[17] = endpoint: mean survival time, dose: 25.0 mg/kg/injection, schedule: Q04DX003 (ip), vehicle: saline with Tween-80
[18] = endpoint: mean survival time, dose: 100.0 mg/kg/injection, schedule: Q01DX009 (ip), vehicle: saline
[19] = endpoint: mean survival time, dose: 6.25 mg/kg/injection, schedule: Q01DX009 (ip), vehicle: saline with Tween-80
[20] = endpoint: mean survival time, dose: 12.5 mg/kg/injection, schedule: Q01DX009 (ip), vehicle: saline with Tween-80

Measured: T/C

O=C1C(O)=C(c2ccccc2)C(=O)C(O)=C1c1ccccc1
inactive: endpoint: mean survival time, dose: 3.12 mg/kg/injection, schedule: Q01DX009 (ip), vehicle: saline 96 % of control | endpoint: mean survival time, dose: 6.25 mg/kg/injection, schedule: Q01DX009 (ip), vehicle: saline 95 % of control | endpoint: mean survival time, dose: 12.5 mg/kg/injection, schedule: Q01DX009 (ip), vehicle: saline 97 % of control | [1] 101 % of control | [2] 108 % of control

Cc1cc(NC(=O)Oc2ccc([N+](=O)[O-])cc2)ccc1S(=O)(=O)F
inactive: [3] 91 % of control and 98 % of control | [4] 87 % of control and 96 % of control | [5] 95 % of control | [6] 93 % of control and 100 % of control | [7] 94 % of control | endpoint: mean survival time, dose: 200.0 mg/kg/injection, schedule: Q01DX001 (ip), vehicle: saline with Tween-80 101 % of control | [8] 91 % of control | endpoint: mean survival time, dose: 200.0 mg/kg/injection, schedule: Q04DX002 (ip), vehicle: saline with Tween-80 93 % of control and 107 % of control | [9] 96 % of control | endpoint: mean survival time, dose: 400.0 mg/kg/injection, schedule: Q01DX001 (ip), vehicle: saline with Tween-80 98 % of control | [10] 100 % of control and 103 % of control | [11] 102 % of control

CN(C)/C=N/N=C1c2ccccc2-c2ccccc21
inactive: [12] 93 % of control | [7] 100 % of control | [8] 98 % of control | [9] 94 % of control | [13] 90 % of control | [11] 101 % of control

CC(C)(C)OC(=O)NC(Cc1cn(Cc2ccccc2)cn1)C(=O)O (stereo unspecified)
inactive: [7] 95 % of control | [9] 101 % of control | [11] 93 % of control

N#CSCc1c(Cl)c(Cl)c(CSC#N)c(Cl)c1Cl
inactive: endpoint: mean survival time, dose: 75.0 mg/kg/injection, schedule: Q04DX003 (ip), vehicle: saline 95 % of control | endpoint: mean survival time, dose: 150.0 mg/kg/injection, schedule: Q04DX003 (ip), vehicle: saline 98 % of control | endpoint: mean survival time, dose: 300.0 mg/kg/injection, schedule: Q04DX003 (ip), vehicle: saline 98 % of control

CNC(=O)c1cccc2ccccc12
inactive: endpoint: mean survival time, dose: 50.0 mg/kg/injection, schedule: Q01DX001 (ip), vehicle: saline 103 % of control | [14] 100 % of control | [15] 97 % of control | [16] 95 % of control

CCCCCCCCCCCCCCCCCCSC1=CC(=O)C(OC)=C(OC)C1=O
inactive: endpoint: mean survival time, dose: 3.13 mg/kg/injection, schedule: Q01DX009 (ip), vehicle: Klucel (hydroxypropylcellulose) (HPC) 90 % of control | endpoint: mean survival time, dose: 6.25 mg/kg/injection, schedule: Q01DX009 (ip), vehicle: Klucel (hydroxypropylcellulose) (HPC) 88 % of control | endpoint: mean survival time, dose: 50.0 mg/kg/injection, schedule: Q01DX009 (ip), vehicle: Klucel (hydroxypropylcellulose) (HPC) 94 % of control

CCOC(=O)CCCC/C(C)=N\N=C(C(C)C)C(C)C
inactive: endpoint: mean survival time, dose: 75.0 mg/kg/injection, schedule: Q01DX001 (ip), vehicle: other 103 % of control | endpoint: mean survival time, dose: 150.0 mg/kg/injection, schedule: Q01DX001 (ip), vehicle: other 97 % of control | endpoint: mean survival time, dose: 300.0 mg/kg/injection, schedule: Q01DX001 (ip), vehicle: other 89 % of control

CCOP(=O)(NCCOC)OCC
inactive: [1] 94 % of control | [17] 101 % of control | [2] 91 % of control | endpoint: mean survival time, dose: 50.0 mg/kg/injection, schedule: Q04DX003 (ip), vehicle: saline with Tween-80 94 % of control | [18] 88 % of control | [7] 101 % of control

CCN(CC)c1cc(Cl)ccc1Cl
inactive: [1] 102 % of control | endpoint: mean survival time, dose: 25.0 mg/kg/injection, schedule: Q04DX002 (ip), vehicle: saline with Tween-80 91 % of control | [2] 101 % of control | endpoint: mean survival time, dose: 50.0 mg/kg/injection, schedule: Q04DX002 (ip), vehicle: saline with Tween-80 95 % of control | [5] 98 % of control | [18] 101 % of control

O=C(N/N=C/c1cccc2ccccc12)C(O)c1ccccc1 (stereo unspecified)
inactive: [12] 104 % of control | [8] 101 % of control | [13] 98 % of control

Clc1ccc(-c2nc3ccccc3s2)cc1
inactive: endpoint: mean survival time, dose: 100.0 mg/kg/injection, schedule: Q01DX001 (ip), vehicle: Klucel (hydroxypropylcellulose) (HPC) 100 % of control | endpoint: mean survival time, dose: 200.0 mg/kg/injection, schedule: Q01DX001 (ip), vehicle: Klucel (hydroxypropylcellulose) (HPC) 95 % of control | endpoint: mean survival time, dose: 400.0 mg/kg/injection, schedule: Q01DX001 (ip), vehicle: Klucel (hydroxypropylcellulose) (HPC) 100 % of control

Cc1c(NC(=O)Nc2cc([N+](=O)[O-])ccc2Cl)c(=O)n(-c2ccccc2)n1C
inactive: [14] 96 % of control | [12] 89 % of control and 98 % of control | endpoint: mean survival time, dose: 100.0 mg/kg/injection, schedule: Q04DX002 (ip), vehicle: saline 93 % of control and 107 % of control | [7] 104 % of control | [15] 86 % of control | [8] 96 % of control and 102 % of control | endpoint: mean survival time, dose: 200.0 mg/kg/injection, schedule: Q04DX002 (ip), vehicle: saline 95 % of control and 96 % of control | [9] 104 % of control | [16] 86 % of control | [13] 96 % of control | endpoint: mean survival time, dose: 400.0 mg/kg/injection, schedule: Q04DX002 (ip), vehicle: saline 91 % of control and 107 % of control | [11] 95 % of control

[N-]=[N+]=NC1CC(n2ccc(N)nc2=O)OC1CO (stereo unspecified)
inactive: endpoint: median survival time, dose: 12.5 mg/kg/injection, schedule: Q01DX005 (ip), vehicle: saline 113 % of control | endpoint: median survival time, dose: 25.0 mg/kg/injection, schedule: Q01DX005 (ip), vehicle: saline 109 % of control | endpoint: median survival time, dose: 50.0 mg/kg/injection, schedule: Q01DX005 (ip), vehicle: saline 98 % of control | endpoint: median survival time, dose: 100.0 mg/kg/injection, schedule: Q01DX005 (ip), vehicle: saline 107 % of control | endpoint: median survival time, dose: 200.0 mg/kg/injection, schedule: Q01DX005 (ip), vehicle: saline 103 % of control

COC1=CC(=O)C2(C)CC=CCC2C1 (stereo unspecified)
inactive: [12] 98 % of control | [7] 92 % of control | [8] 95 % of control | [9] 103 % of control | [13] 95 % of control | [11] 91 % of control

COc1ccc(COc2ccc([N+](=O)[O-])cc2)cc1
inactive: [6] 87 % of control | [10] 87 % of control

Nc1ccc(-c2ccc(N)c(Cl)c2)cc1Cl
inactive: endpoint: mean survival time, dose: 100.0 mg/kg/injection, schedule: Q01DX009 (ip), vehicle: Klucel (hydroxypropylcellulose) (HPC) 105 % of control | endpoint: mean survival time, dose: 200.0 mg/kg/injection, schedule: Q01DX009 (ip), vehicle: Klucel (hydroxypropylcellulose) (HPC) 103 % of control | endpoint: mean survival time, dose: 400.0 mg/kg/injection, schedule: Q01DX009 (ip), vehicle: Klucel (hydroxypropylcellulose) (HPC) 100 % of control

O=CC(Br)C(Br)c1ccccc1 (stereo unspecified)
inactive: [19] 98 % of control | endpoint: mean survival time, dose: 6.25 mg/kg/injection, schedule: Q04DX003 (ip), vehicle: saline with Tween-80 113 % of control | [20] 98 % of control | endpoint: mean survival time, dose: 12.5 mg/kg/injection, schedule: Q04DX003 (ip), vehicle: saline with Tween-80 98 % of control | [3] 104 % of control | [17] 102 % of control and 104 % of control | endpoint: mean survival time, dose: 50.0 mg/kg/injection, schedule: Q01DX009 (ip), vehicle: other 111 % of control

Clc1cc(Cl)cc(Nc2nc(C(Cl)(Cl)Cl)nc(C(Cl)(Cl)Cl)n2)c1
inactive: [4] 98 % of control | [12] 95 % of control | [7] 89 % of control | [8] 90 % of control | [9] 86 % of control

CCC12C(=O)C(CC)(C3=C1c1cccc4cccc3c14)C1C(=O)OC(=O)C12 (stereo unspecified)
inactive: [7] 97 % of control | [9] 97 % of control | [11] 97 % of control

O=[Te]=O
inactive: endpoint: median survival time, dose: 3.12 mg/kg/injection, schedule: Q01DX009 (ip), vehicle: saline 100 % of control | endpoint: median survival time, dose: 6.25 mg/kg/injection, schedule: Q01DX009 (ip), vehicle: saline 98 % of control | endpoint: median survival time, dose: 10.0 mg/kg/injection, schedule: Q01DX009 (ip), vehicle: saline 101 % of control | endpoint: median survival time, dose: 12.5 mg/kg/injection, schedule: Q01DX009 (ip), vehicle: saline 100 % of control | endpoint: median survival time, dose: 20.0 mg/kg/injection, schedule: Q01DX009 (ip), vehicle: saline 97 % of control

CSc1ccc2c(c1)C(N1CCN(C)CC1)Cc1ccccc1S2 (stereo unspecified)
inactive: endpoint: mean survival time, dose: 1.56 mg/kg/injection, schedule: Q01DX009 (ip), vehicle: saline with Tween-80 112 % of control | endpoint: mean survival time, dose: 3.12 mg/kg/injection, schedule: Q01DX009 (ip), vehicle: saline with Tween-80 118 % of control and 121 % of control | [19] 116 % of control and 122 % of control | [20] 115 % of control and 120 % of control | [3] 122 % of control and 108 % of control | [4] 114 % of control
